{"source": "patent US9387211B2", "about": "(Cedars-Sinai Medical Center, priority 2010, dated 2016)", "key": {"[1]": {"system": "AtT20 cells stably expressing empty vector (V)", "test": "Pomc promoter luciferase assay", "conditions": "highest gefitinib dose (10 μM); control cells"}, "[2]": {"system": "non-tumor pituitary cell cultures"}, "[3]": {"system": "AtT20 cells stably expressing empty vector (V)", "test": "Cell proliferation assay (cell counting)", "procedure": "EGFR WT cells were plated at a density of 2×10^4 per well in 12-well plates with growth medium. Cells were counted by hemocytometer at the indicated times."}, "[4]": {"system": "AtT20 cells stably expressing empty vector (V)", "test": "BrdU incorporation by flow cytometry", "conditions": "10 μM gefitinib, 24 hours", "procedure": "Fixative was prepared by adding 30 mL of 50 mM glycin solution (pH 2.0) to 70 mL ethanol. Cells were fixed for overnight at −20° C. Cells were washed with PBS, and resuspended in incubation solution with anti-BrdU antibody (1:10) for 30 minutes at 37° C. with gentle agitation. […] Samples were washed with PBS and fluorescence was measured by flow cytometry."}}, "data": [{"compound": "COc1cc2ncnc(Nc3ccc(F)c(Cl)c3)c2cc1OCCCN1CCOCC1", "note": "[gefitinib]", "values": [{"measurement": "suppression of pomc promoter activity", "setting": "[1]", "value": "~23", "unit": "%"}, {"measurement": "pomc mRNA expression levels", "setting": "[2]; non-tumor pituitary cell cultures (FIG. 6)", "value": "unaltered"}, {"measurement": "normal pituitary function", "setting": "[2]; normal pituitary (FIG. 5F)", "value": "does not affect"}, {"measurement": "decrease of cell proliferation", "setting": "[3]; gefitinib 0.1-10 μM, 24 hours, V", "value": "not V cell proliferation"}, {"measurement": "cell number", "setting": "[3]; high dose (10 μM) gefitinib, V cells", "value": "not altered"}, {"measurement": "reduction of BrdU incorporation", "setting": "[4]", "value": "~58", "unit": "%"}]}]}
